From paper PMC11017246, “Discovery of GLPG2737, a Potent Type 2 Corrector of CFTR for the Treatment of Cystic Fibrosis in Combination with a Potentiator and a Type 1 Co-corrector” (Journal of Medicinal Chemistry, 2024)

Experiments:
CYP3A4 = CYP3A4 induction (mRNA) in human hepatocytes; type: in vitro ADME; settings: for CYP (3A4) mRNA induction, result in words: compared with positive control rifampicin
Experimental: Cryopreserved human hepatocytes from a single donor were seeded at 0.1 × 10^6 cells/well. The next day, cells were dosed with test compound in assay medium (final test compound concentration 10 μM; final DMSO concentration 0.1%). Positive control inducer, rifampicin, for CYP3A4, was incubated alongside the test compound. Negative control wells were included where the test compound is replaced by vehicle solvent (0.1% DMSO in assay medium). Each test or control compound was dosed in triplicate at a single concentration (10 μM). The cells were exposed to the solutions for 72 h with fresh solution added every 24 h. For mRNA assessment, all media was removed from each of the wells, and the cells were washed once. The cells were lysed, and total RNA was then isolated from the hepatocyte lysates. Reverse transcription was performed, and quantitative PCR analysis was performed on the resulting cDNA, using gene-specific primer probe sets for CYP3A4 target cDNA and endogenous control. Samples were analyzed using an ABI 7900 HT real time PCR system. For mRNA assessment, relative fold mRNA expression was determined based on the threshold cycle (CT) data of target gene relative to endogenous control for each reaction and normalized to negative control using the 2-ΔΔCT method. Data were expressed as fold activation relative to the vehicle control and, as a percent, to the 10 μM rifampicin using the following formula: % of positive control = ((fold increase of the cpd relative to vehicle control – 1)/(fold increase of the rifampicin at 10 μM – 1)) × 100.

[1] = Plasma protein binding, rat; type: in vitro ADME; settings: pH 7.4, read-out: PPB % rat (converted)
Experimental: (§1) Plasma protein binding was determined by equilibrium dialysis using the Pierce Red Device plate with inserts (ThermoScientific). Test compound at 5 μM (0.5% DMSO) spiked in freshly thawed human, rat, mouse, or dog plasma (Bioreclamation INC, Westbury, NY, USA) was dialyzed against phosphate-buffered saline (PBS, pH 7.4) at 37 °C under shaking for 4 h. Aliquots were taken from each side of the well, and matrix matched. Proteins were precipitated with an excess of acetonitrile, samples were mixed and centrifuged, and the supernatant was analyzed by liquid chromatography–mass spectrometry/mass spectrometry (LC–MS/MS). Addition of compound peak areas in the buffer chamber and the plasma chamber was considered to be 100% compound.

PK rat = type: in vivo
Experimental: These studies were performed with naïve male Sprague–Dawley rats (Janvier France, 6–8 weeks old). Rats were dosed iv via a bolus in the tail vein with a dose level of 0.1 mg/kg or orally as a single esophageal gavage with a dose level of 5 mg/kg. For the iv route, the compound was formulated in PEG200/water (60/40; v/v). For the oral route, the compound was formulated in MC 0.5% (2/98) as a homogeneous suspension. Before the oral dosing, the animals were deprived of food for at least 12 h before compound administration until 3 h after administration. All animals had free access to the tap water. Blood samples were collected under light anesthesia and placed into tubes containing Li-heparin as an anticoagulant. Blood samples were collected up to 24 h after dosing (n = 3 rats per route). After centrifugation, the resulting plasma samples were assayed by LC-MS/MS with a nongood laboratory practice (non-GLP)-validated method. PK parameters were calculated by noncompartmental analysis using WinNonlin software (Certara, Princeton, NJ, USA).

CYP3A4 enzyme = CYP3A4 enzyme (Homo sapiens, UniProt P08684); test: Mechanism-based inactivation of CYP3A4; type: in vitro ADME
[2] = Plasma protein binding, human; type: in vitro ADME; settings: human, plasma, pH 7.4, human plasma; read-out: PPB % human (converted)
Experimental: as §1

[3] = tested on: cytochrome P450 subtypes except 2C9; test: CYP inhibition, all subtypes except 2C9; type: in vitro ADME; settings: human, liver microsomes, pH 7.4
Experimental: (§2) Test compounds were diluted in methanol and then added to mixture containing 50 mM potassium phosphate buffer, pH 7.4, human liver microsomes (BD Gentest) and probe substrate. After prewarming for 5 min at 37 °C, the reaction was started by adding cofactor mix (7.65 mg/mL glucose-6-phosphate, 1.7 mg/mL NADP, 6 U/mL of glucose-6-phosphate dehydrogenase), resulting in seven final concentrations of test compounds in the range 0.14–100 μM (2% methanol). Isoform specific conditions regarding probe substrate and microsomal protein concentrations are available in Table 2. Final concentrations of cofactor mix components were as follows: 1.56 mg/mL glucose-6-phosphate, 0.34 mg/mL NADP, and 1.2 U/mL glucose-6-phosphate dehydrogenase. After incubation at 37 °C, the reaction was terminated with acetonitrile:methanol (2:1) solution with internal standard. Samples were centrifuged, and the supernatant fractions were analyzed by LC-MS/MS. The instrument responses (test compounds and internal standard peak areas) were referenced to those for solvent controls (assumed as 100%) in order to determine the percentage reduction in probe metabolism. Percent of control activity vs concentration plots were generated and fitted using GraphPad Prism software to generate IC50.

CYP2C9 = biological target: T1, CYP2C9 (Homo sapiens, UniProt P11712); test: CYP reversible inhibition in HLM, CYP2C9; type: in vitro ADME; settings: probe not given; read-out: CYP inhibition IC50, 2C9
T1 construct: tissue BD Gentest; host or cells: human liver microsomes
Experimental: as §2

[4] = Plasma protein binding, dog; type: in vitro ADME; settings: dog, plasma, pH 7.4, dog plasma; read-out: PPB % dog (converted)
Experimental: as §1

ΔF508 CFTR = biological target: T2, ΔF508 CFTR (Homo sapiens, UniProt P13569, DEL508-508); test: TECC (transepithelial clamp circuit) in primary CF-derived HBE cells; type: cell-based
T2 construct: host or cells: CFBE41o- TetON cells, expression induced with doxycycline
Experimental: Bronchial epithelial cells isolated from the lungs of patients with CF homozygous for the ΔF508 CFTR mutation were obtained from McGill University (Montreal, QC, Canada) or the University of North Carolina (Chapel Hill, NC, United States). Cells were isolated from lungs obtained from donors undergoing planned transplantation. These primary cells were cultured directly on type IV collagen-coated polycarbonate Transwell supports with a diameter of 6.5 mm and pore size of 0.4 μm (Costar, #3397) for 18–25 days in an air–liquid interface, essentially as previously described for TECC.[23]
Twenty-four hours prior to the electrophysiological recording, corrector and/or potentiator compounds were added on both the apical and basolateral sides. TECC recordings were performed by using the TECC instrument developed and sold by EP Design (Bertem, Belgium). During the recording, the epithelial cells were bathed in a NaCl-Ringer solution (120 mM NaCl, 20 mM HEPES, 1.2 mM CaCl2, 1.2 mM MgCl2, 0.8 mM KH2PO4, 0.8 mM K2HPO4, 5 mM glucose, pH 7.4) on both the basolateral (640 μL) and the apical (160 μL) sides and kept at 37 °C. Corrector and potentiator compounds were readded at the same concentration used during the 24 h pretreatment. Apical amiloride was used to inhibit the endogenous ENaC currents (100 μM), while forskolin (10 μM) was applied on both the apical and basolateral sides to stimulate CFTR. Measurements were done during a 20 min time frame with recordings every 2 min. The transepithelial potential and transepithelial resistance were measured in an open circuit and transformed to Ieq using Ohm’s law. The maximal increase in Ieq (ΔIeq, the difference in current before and after forskolin or potentiator treatment) was used as a measure for the increased CFTR activity. EC50 values were generated by measuring the impact of different concentrations of compounds on ΔIeq in primary cells. For this purpose, each transwell was treated with a different compound concentration. CFTRInh-172 was added apically at 10 μM to assess the specificity of the response. Dose response data was fitted using a 3-parameter hill function of the form Response = Bottom + (Top – Bottom)/(1 + (EC50/concentration)) to determine EC50 values. Percentage efficacy was calculated using the following formula: (max response – neg control)/(C1 response – neg control).

PK dog = type: in vivo; settings: iv
Experimental: These studies were performed with non-naïve male Beagle dogs (age 13.8 months old, origin: Marshall US, North Rose, NY 14516, USA; age 15.8 months old, origin: Harlan; age 17.7 months old, origin: Harlan). Dogs (n = 3) were dosed iv via a 10 min infusion via a catheter with a dose level of 1 mg/kg. After a washout of 3 days, they were dosed orally as a single gavage with a dose level of 5 or 1 mg/kg in PEG400/MC 0.5% or MC 0.5%. Before administration by the po route, animals were fasted for a period of at least 12 h before treatment, and food was given just after the 3 h of blood sampling. All animals had free access to tap water. Blood samples were taken without an anesthetic from a jugular or cephalic vein into tubes containing lithium heparin as an anticoagulant. Blood samples were taken up to 24 h after the start of the infusion. After centrifugation, the resulting plasma samples were assayed by LC-MS/MS with a nongood laboratory practice (non-GLP)-validated method. PK parameters were calculated by noncompartmental analysis using WinNonlin software (Certara, Princeton, NJ, USA).

T2 sequence (P13569 with tags, fused parts or gaps DEL508-508): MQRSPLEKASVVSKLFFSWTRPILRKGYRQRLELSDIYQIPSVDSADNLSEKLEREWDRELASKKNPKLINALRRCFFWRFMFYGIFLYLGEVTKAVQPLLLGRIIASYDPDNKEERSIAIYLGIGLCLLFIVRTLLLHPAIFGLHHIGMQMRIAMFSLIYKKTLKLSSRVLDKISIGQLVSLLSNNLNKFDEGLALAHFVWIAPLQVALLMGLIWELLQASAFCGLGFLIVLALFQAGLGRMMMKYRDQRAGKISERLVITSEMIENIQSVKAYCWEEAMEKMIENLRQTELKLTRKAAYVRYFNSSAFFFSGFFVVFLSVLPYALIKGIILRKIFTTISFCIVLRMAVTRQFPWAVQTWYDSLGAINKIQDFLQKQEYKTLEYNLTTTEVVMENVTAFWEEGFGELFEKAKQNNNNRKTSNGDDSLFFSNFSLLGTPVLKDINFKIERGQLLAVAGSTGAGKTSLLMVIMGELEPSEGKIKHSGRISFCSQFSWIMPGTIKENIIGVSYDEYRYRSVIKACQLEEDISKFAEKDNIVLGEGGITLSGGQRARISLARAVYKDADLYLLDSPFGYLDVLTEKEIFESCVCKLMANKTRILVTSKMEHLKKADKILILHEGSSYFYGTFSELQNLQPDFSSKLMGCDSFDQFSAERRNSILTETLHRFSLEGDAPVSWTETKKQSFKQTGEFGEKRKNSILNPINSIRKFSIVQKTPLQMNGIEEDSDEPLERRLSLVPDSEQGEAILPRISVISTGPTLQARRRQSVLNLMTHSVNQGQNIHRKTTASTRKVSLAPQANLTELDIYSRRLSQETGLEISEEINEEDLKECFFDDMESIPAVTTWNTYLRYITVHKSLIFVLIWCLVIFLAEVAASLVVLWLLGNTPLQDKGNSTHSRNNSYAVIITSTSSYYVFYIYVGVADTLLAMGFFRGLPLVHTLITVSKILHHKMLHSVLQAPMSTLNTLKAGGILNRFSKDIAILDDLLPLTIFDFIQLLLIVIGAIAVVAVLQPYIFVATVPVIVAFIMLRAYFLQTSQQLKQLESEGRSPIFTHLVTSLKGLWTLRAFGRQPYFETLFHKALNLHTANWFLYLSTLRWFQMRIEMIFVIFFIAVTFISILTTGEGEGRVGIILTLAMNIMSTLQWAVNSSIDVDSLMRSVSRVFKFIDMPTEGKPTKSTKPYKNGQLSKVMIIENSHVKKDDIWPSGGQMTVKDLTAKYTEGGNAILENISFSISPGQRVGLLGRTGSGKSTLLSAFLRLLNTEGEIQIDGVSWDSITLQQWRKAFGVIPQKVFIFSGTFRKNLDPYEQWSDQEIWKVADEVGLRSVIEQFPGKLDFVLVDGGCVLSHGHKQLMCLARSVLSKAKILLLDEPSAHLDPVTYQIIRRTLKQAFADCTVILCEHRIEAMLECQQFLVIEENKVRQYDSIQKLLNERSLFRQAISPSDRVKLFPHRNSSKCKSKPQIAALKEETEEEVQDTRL
Chain of CYP3A4 enzyme (P08684 whole entry): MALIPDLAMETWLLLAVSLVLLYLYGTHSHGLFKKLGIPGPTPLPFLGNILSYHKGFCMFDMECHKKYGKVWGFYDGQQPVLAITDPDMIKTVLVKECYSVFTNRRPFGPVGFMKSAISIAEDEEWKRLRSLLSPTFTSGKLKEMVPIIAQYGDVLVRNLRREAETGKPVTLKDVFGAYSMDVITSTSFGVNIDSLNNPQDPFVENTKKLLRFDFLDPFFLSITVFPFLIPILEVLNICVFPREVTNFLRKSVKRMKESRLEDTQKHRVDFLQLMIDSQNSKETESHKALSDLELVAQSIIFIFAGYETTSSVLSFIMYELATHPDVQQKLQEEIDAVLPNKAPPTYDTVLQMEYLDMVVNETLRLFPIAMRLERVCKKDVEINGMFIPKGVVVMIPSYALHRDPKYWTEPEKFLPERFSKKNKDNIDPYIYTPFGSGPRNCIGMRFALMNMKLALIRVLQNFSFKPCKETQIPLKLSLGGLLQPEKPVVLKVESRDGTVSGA
T1 sequence (P11712 whole entry): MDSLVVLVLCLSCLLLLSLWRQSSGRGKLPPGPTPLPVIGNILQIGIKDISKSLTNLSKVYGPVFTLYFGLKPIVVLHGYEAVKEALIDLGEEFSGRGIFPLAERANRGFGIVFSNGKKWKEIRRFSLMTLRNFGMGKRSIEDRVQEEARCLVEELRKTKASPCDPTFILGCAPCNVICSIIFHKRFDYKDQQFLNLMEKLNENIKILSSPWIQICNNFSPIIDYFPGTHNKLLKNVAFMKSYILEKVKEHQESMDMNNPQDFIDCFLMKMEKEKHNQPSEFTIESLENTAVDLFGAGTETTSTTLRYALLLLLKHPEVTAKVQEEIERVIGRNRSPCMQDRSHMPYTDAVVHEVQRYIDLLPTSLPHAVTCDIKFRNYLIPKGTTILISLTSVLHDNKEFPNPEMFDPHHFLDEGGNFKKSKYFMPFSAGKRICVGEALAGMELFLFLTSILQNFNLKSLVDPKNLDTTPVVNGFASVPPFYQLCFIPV

Compound: CS(=O)(=O)NC(=O)c1cc(-c2ccc(N3CCC(C#N)CC3)nc2)c2c(C3CCC3)nn(-c3ccccc3)c2n1 [Compound 45]
- CYP (3A4) mRNA induction, result in words (CYP3A4): low CYP3A4 induction
- fraction unbound at 4 h, 5 μM [1]: 0.0003
- clearance (PK rat; male, Sprague-Dawley, plasma, 1 mg/kg, iv dosing, read-out: plasma clearance (converted)): 0.41 mL/min/kg
- bioavailability at 24 h (PK rat; male, Sprague-Dawley, plasma, 5 mg/kg po): 63.4%
- clearance (PK rat; male, Sprague-Dawley, plasma, iv, 0.1 mg/kg, formula-strings file, unit inferred, read-out: Cl (converted)): 0.41 mL/min/kg
- Vd (PK rat; male, Sprague-Dawley, plasma, iv, 0.1 mg/kg, formula-strings file, unit inferred, read-out: Vss): 0.195 L/kg
- Vd (PK rat; male, Sprague-Dawley, plasma, iv, 1 mg/kg, 1 mg/kg iv, read-out: Vss): 0.2 L/kg
- mechanism-based inactivation of CYP3A4 (CYP3A4 enzyme): devoid of mechanism-based inactivation
- fraction unbound at 4 h, 5 μM [2]: 0.0035
- IC50 [3]: ≥ 50000 nM
- IC50 (CYP2C9): 187 nM

Compound: CS(=O)(=O)NC(=O)c1cc(N2CCC(N3CCOCC3)CC2)c2c(C3CCC3)nn(-c3ccccc3)c2n1 [Compound 49]
- fraction unbound at 4 h, 5 μM [4]: 0.015
- CYP induction @10 μM (mRNA) % rifampicin (CYP3A4; data generated by AbbVie team): 6.7%
- CYP induction @10 μM (mRNA) % rifampicin (CYP3A4; data generated by Galapagos): 12%
- CYP (3A4) mRNA induction, result in words (CYP3A4): devoid of any CYP induction liability
- fraction unbound at 4 h, 5 μM [1]: 0.01
- CLu rat (PK rat; iv, unbound clearance): 70 mL/min/kg
- clearance (PK rat; male, Sprague-Dawley, plasma, 0.1 mg/kg, iv, read-out: CLp rat (converted)): 1 mL/min/kg
- half-life (PK rat; male, Sprague-Dawley, plasma, 0.1 mg/kg, iv, read-out: t1/2 iv rat (converted)): 4.7 h
- Vd (PK rat; male, Sprague-Dawley, plasma, iv, 0.1 mg/kg, iv, read-out: Vss rat): 0.4 L/kg
- shift of the potentiator activity (ΔF508 CFTR; GLPG1837 potency in triple combination): 1 log unit
- Emax (ΔF508 CFTR; primary ΔF508 homozygous HBE cells, 24 h incubation, with GLPG2222, read-out: TECC HBE with GLPG2222 % max activation): 534%
- EC50 (ΔF508 CFTR; primary ΔF508 homozygous HBE cells, 24 h incubation, with GLPG2222, read-out: TECC HBE with GLPG2222 EC50): 39 nM
- fraction unbound at 4 h, 5 μM [2]: 0.01
- CLu dog (PK dog; unbound clearance): 8.3 mL/min/kg
- clearance (PK dog; male, beagle, plasma, 1 mg/kg, read-out: CLp dog (converted)): 0.333 mL/min/kg
- Vd (PK dog; male, beagle, plasma, 1 mg/kg, read-out: Vss dog): 0.2 L/kg
- half-life (PK dog; male, beagle, plasma, 1 mg/kg, read-out: t1/2 iv dog (converted)): 6.6 h
